Assay results taken from US20070128217A1 (priority 2003, published 2007).

Key:
[1] = test system: rabbit serum obtained by immunizing a rabbit with the SARS-CoV strain Frankfurt 1; assay type: binding; set-up: Binding of a rabbit serum to linear peptides / Binding of a rabbit serum to looped peptides / Rabbit serum linear peptides / Rabbit serum looped peptides / Binding of a rabbit serum to linear peptides of protein N of SARS-CoV Urbani (Rabbit serum linear peptides) / Binding of a rabbit serum to looped/cyclic peptides of protein N of SARS-CoV Urbani (Rabbit serum looped peptides): unit not given here
[2] = test system: recombinant human anti-SARS-CoV antibody 03-018; assay type: binding; set-up: Binding of antibody 03-018 to linear peptides of the N protein of SARS-CoV Urbani / Binding of antibody 03-018 to looped/cyclic peptides of the N protein of SARS-CoV Urbani: unit not given here
[3] = test system: antibodies in sera from SARS patients (sera 1a, 1b, 2, 6, 37, 62, London, SARS-yellow, SARS-green); assay type: binding, human; set-up: Binding of serum 6 to linear peptides of protein X1 of SARS-CoV Urbani / Binding of serum 37 to linear peptides of protein X1 of SARS-CoV Urbani / Binding of serum 6 to looped/cyclic peptide (PEPSCAN-ELISA) / Binding of serum 37 to looped/cyclic peptide (PEPSCAN-ELISA) / Binding of serum 37 to looped/cyclic peptides of protein X1 of SARS-CoV Urbani / Binding of serum 6 to linear peptides of protein X2 / Binding of serum 37 to linear peptides of protein X2 / Binding of serum 37 to looped/cyclic peptides of protein X2 of SARS-CoV Urbani / Binding of serum 6 to linear peptides of protein M of SARS-CoV Urbani / Binding of serum 37 to linear peptides of protein M of SARS-CoV Urbani / Binding of serum 6 to looped/cyclic peptides of protein M of SARS-CoV Urbani / Binding of serum 37 to looped/cyclic peptides of protein M of SARS-CoV Urbani / Binding of serum 6 to linear peptides of protein X3 of SARS-CoV Urbani / Binding of serum 37 to linear peptides of protein X3 of SARS-CoV Urbani / Binding of serum 37 to looped/cyclic peptides of protein X3 of SARS-CoV Urbani / Binding of serum 6 to linear peptides of protein X4 of SARS-CoV Urbani / Binding of serum 37 to linear peptides of protein X4 of SARS-CoV Urbani / Binding of serum 37 to looped/cyclic peptides of protein X4 of SARS-CoV Urbani / Binding of serum 6 to linear peptides of protein X5 of SARS-CoV Urbani / Binding of serum 37 to linear peptides of protein X5 of SARS-CoV Urbani / Binding of serum 37 to looped/cyclic peptides of protein X5 of SARS-CoV Urbani / Binding of serum 6 to linear peptides of protein N of SARS-CoV Urbani / Binding of serum 37 to linear peptides of protein N of SARS-CoV Urbani / Binding of serum 6 to linear peptide (PEPSCAN-ELISA) / Binding of serum 1a to looped/cyclic peptides of protein N of SARS-CoV Urbani / Binding of serum 1b to looped/cyclic peptides of protein N of SARS-CoV Urbani / Binding of serum 2 to looped/cyclic peptides of protein N of SARS-CoV Urbani / Binding of serum 6 to looped/cyclic peptides of protein N of SARS-CoV Urbani / Binding of serum 37 to looped/cyclic peptides of protein N of SARS-CoV Urbani / Binding of serum 62 to looped/cyclic peptides of protein N of SARS-CoV Urbani / Binding of serum London to looped/cyclic peptides of protein N of SARS-CoV Urbani / Binding of serum SARS-green to looped/cyclic peptides of protein N of SARS-CoV Urbani: unit not given here
[4] = test system: control sera (pooled serum of ten healthy LUMC hospital workers; commercial negative donor pooled serum from the Dutch bloodbank); assay type: binding, human; set-up: Binding of Control serum LUMC to linear peptides / Binding of Control serum Blood-bank to linear peptides / Binding of Control serum LUMC to looped peptides / Binding of Control Serum Blood-Bank to Looped peptides / Binding of Control serum LUMC to linear peptides of the protein M of SARS-CoV Urbani / Binding of Control serum Blood-bank to linear peptides of the protein M of SARS-CoV Urbani / Binding of Control serum LUMC to looped peptides of the protein M of SARS-CoV Urbani / Binding of Control Serum Blood-Bank to Looped peptides of the protein M of SARS-CoV Urbani: unit not given here

| Sequence | Binding of a rabbit serum to linear peptides of protein N of SARS-CoV Urbani (Rabbit serum linear peptides) [1] | Binding of a rabbit serum to looped/cyclic peptides of protein N of SARS-CoV Urbani (Rabbit serum looped peptides) [1] | Binding of antibody 03-018 to linear peptides of the N protein of SARS-CoV Urbani [2] | Binding of antibody 03-018 to looped/cyclic peptides of the N protein of SARS-CoV Urbani [2] | Binding of serum 1a to linear peptides of protein N of SARS-CoV Urbani [3] | Binding of serum 1a to looped/cyclic peptides of protein N of SARS-CoV Urbani [3] | Binding of serum 1b to linear peptides of protein N of SARS-CoV Urbani [3] | Binding of serum 1b to looped/cyclic peptides of protein N of SARS-CoV Urbani [3] | Binding of serum 2 to linear peptides of protein N of SARS-CoV Urbani [3] | Binding of serum 2 to looped/cyclic peptides of protein N of SARS-CoV Urbani [3] | Binding of serum 6 to linear peptides of protein N of SARS-CoV Urbani [3] | Binding of serum 6 to looped/cyclic peptides of protein N of SARS-CoV Urbani [3] | Binding of serum 37 to linear peptides of protein N of SARS-CoV Urbani [3] | Binding of serum 37 to looped/cyclic peptides of protein N of SARS-CoV Urbani [3] | Binding of serum 62 to linear peptides of protein N of SARS-CoV Urbani [3] | Binding of serum 62 to looped/cyclic peptides of protein N of SARS-CoV Urbani [3] | Binding of serum London to linear peptides of protein N of SARS-CoV Urbani [3] | Binding of serum London to looped/cyclic peptides of protein N of SARS-CoV Urbani [3] | Binding of serum SARS-green to looped/cyclic peptides of protein N of SARS-CoV Urbani [3] | Binding of serum SARS-yellow to looped/cyclic peptides of protein N of SARS-CoV Urbani [3] | other results |
| --- | --- | --- | --- | --- | --- | --- | --- | --- | --- | --- | --- | --- | --- | --- | --- | --- | --- | --- | --- | --- | --- |
| PTDSTDNNQNGGRNG | 0.1 | 0.1 | 0.1 | 0.2 | 0.3 | 0.3 | 0.2 | 0.2 | 0.3 | 0.3 | 0.2 | 0.2 | 1.2 | 0.5 | 0.8 | 0.3 | 0.7 | 0.4 | 0.4 | 0.5 | Binding of serum SARS-green to linear peptides of protein N of SARS-CoV Urbani [3]: 0.6; Binding of serum SARS-yellow to linear peptides of protein N of SARS-CoV Urbani [3]: 0.7; Binding of Control Serum Blood-Bank to Looped peptides [4]: 0.5; Binding of Control serum Blood-bank to linear peptides [4]: 1.0; Binding of Control serum LUMC to linear peptides [4]: 0.8; Binding of Control serum LUMC to looped peptides [4]: 0.4 |
| PTEPKKDKKKKTDEA | 0.1 | 0.2 | 0.1 | 0.2 | 0.2 | 0.2 | 0.1 | 0.1 | 2.0 | 0.3 | 0.2 | 0.1 | 0.6 | 0.3 | 0.7 | 0.3 | 0.5 | 0.3 | 0.0 | 0.2 | Binding of serum SARS-green to linear peptides of protein N of SARS-CoV Urbani [3]: 0.2; Binding of serum SARS-yellow to linear peptides of protein N of SARS-CoV Urbani [3]: 0.5; Control Serum Blood-Bank Looped peptides [4]: 0.4; Control serum Blood-bank linear peptides [4]: 0.6; Control serum LUMC linear peptides [4]: 0.6; Control serum LUMC looped peptides [4]: 0.3 |
| PTVTLLPAADMDDFS | 0.1 | 0.0 | 0.1 | 0.2 | 0.3 | 0.2 | 0.2 | 0.2 | 0.2 | 0.3 | 0.1 | 0.1 | 1.4 | 0.4 | 0.9 | 0.2 | 0.6 | 0.2 | 0.7 | 0.1 | Binding of serum SARS-green to linear peptides of protein N of SARS-CoV Urbani [3]: 1.9; Binding of serum SARS-yellow to linear peptides of protein N of SARS-CoV Urbani [3]: 0.7; Control Serum Blood-Bank Looped peptides [4]: 0.3; Control serum Blood-bank linear peptides [4]: 0.8; Control serum LUMC linear peptides [4]: 0.7; Control serum LUMC looped peptides [4]: 0.3 |
| QASSRSSSRSRGNSR | 0.3 | 1.1 | 0.1 | 0.2 | – | 0.3 | – | 0.2 | – | 0.4 | – | 0.3 | – | 0.5 | – | 0.4 | – | 0.4 | 0.1 | 0.4 | Binding of serum 1a to linear peptide (PEPSCAN-ELISA) [3]: 0.2; Binding of serum 1b to linear peptide (PEPSCAN-ELISA) [3]: 0.1; Binding of serum 2 to linear peptide (PEPSCAN-ELISA) [3]: 0.3; Binding of serum 6 to linear peptide (PEPSCAN-ELISA) [3]: 0.3; Binding of serum 37 to linear peptide (PEPSCAN-ELISA) [3]: 0.6; Binding of serum 62 to linear peptide (PEPSCAN-ELISA) [3]: 0.6; Binding of serum London to linear peptide (PEPSCAN-ELISA) [3]: 0.5; Binding of serum SARS-green to linear peptide (PEPSCAN-ELISA) [3]: 0.2; Binding of serum SARS-yellow to linear peptide (PEPSCAN-ELISA) [3]: 0.6; Binding of Control Serum Blood-Bank to Looped peptides [4]: 0.5; Binding of Control serum Blood-bank to linear peptides [4]: 0.7; Binding of Control serum LUMC to linear peptides [4]: 0.7; Binding of Control serum LUMC to looped peptides [4]: 0.5 |
